Here are results for five compounds from ChEMBL document CHEMBL5625209, “Rational design and optimization of acylthioureas as novel potent influenza virus non-nucleoside polymerase inhibitors” (Eur J Med Chem, 2023).

The experiment relates to Influenza A virus. As to the kind of experiment: Antiviral activity against Influenza A virus H1N1 (A/Puerto Rico/8/34) harboring H274Y mutant infected in MDCK cells. The experiment is classed as functional, organism-based.
Regarding `CC(C)(C)c1ccc(C(=O)NC(=S)Nc2ccc(NC(=O)c3ccccc3)cc2)cc1`, the EC50 was 600 nM. For `CC(C)(C)c1ccc(C(=O)NC(=S)Nc2ccc(NC(=O)c3ccc(C(C)(C)C)cc3)cc2)cc1` the value was 20 nM; for `CC(C)(C)c1ccc(C(=O)NC(=S)Nc2ccc(O)cc2)cc1`, 9400 nM.

With `CCC(=O)Nc1ccc(NC(=S)NC(=O)c2ccc(C(C)(C)C)cc2)cc1`, a half-maximal response (EC50) required 5400 nM. In turn, `CC(C)(C)c1ccc(C(=O)NC(=S)Nc2ccc(NC(=O)c3ccc(Cl)cc3)cc2)cc1` came in with an EC50 of 400 nM.
